Data taken from patent publication US20260146045A1, “COMPOSITIONS AND USES THEREOF” (Solve Therapeutics, Inc., priority 2022, published 2026).

Tested on: SKBR3, a breast cancer cell line
Assay: in vitro cytotoxicity assay (CellTiter-Glo viability)
Type: cell-based
Settings: Homo sapiens, SK-BR-3, SKBR3 cells, 72 hours at 37° C., luminometer
Protocol: The ability of compounds to inhibit cell growth was measured using in vitro cytotoxicity assay.
Cells were cultured in log phase growth and split into 96-well plates. Each cell-line was plated at a slightly different concentration but ranged from 5×10^3 to 50x 10+ cells/well. Cells, in duplicate, were incubated with 3-fold serial dilution of a particular immunoconjugate starting at 3000 or 1000 nanomolar (3000, 1000, 333, 111, 37, 12.3, 4.1, 1.37, 0.46, 0.15 nanomolar) for 72 hours at 37° C. and 5% CO2. After treatment the cells were incubated with an equal volume of CellTiter-Glo® reagent (Promega Inc.) for 15 minutes at room temperature, and viability was determined by a luminometer.

SMILES	EC50
CC[C@@]1(O)C(=O)OCc2c1cc1n(c2=O)Cc2c-1nc1cc(F)ccc1c2CNC(=O)CN [Compound 7]	89 nM
CC[C@@]1(O)C(=O)OCc2c1cc1n(c2=O)Cc2c-1nc1cc(F)ccc1c2CNC(=O)CO [Compound 8]	5.6 nM
CC[C@@]1(O)C(=O)OCc2c1cc1n(c2=O)Cc2c-1nc1ccc(O)cc1c2CNC(=O)CN [Compound 13]	1050 nM
CC[C@@]1(O)C(=O)OCc2c1cc1n(c2=O)Cc2c-1nc1ccc(O)cc1c2CNC(=O)CO [Compound 14]	516 nM
